The values below come from patent US20120152149A1, “USE OF 1,3-DIOLS AS BIOCIDES” (BASF SE, priority 2009, published 2012).

Holding throughout (assay): Preservation stress test, example formulation 1 (standard emulsion O/W)
Holding throughout (type): cell-based
Conditions in all cases: 1% active substance

In one assay the test system is E. coli ATCC 10536. The protocol: (§1) Preservation stress tests (PSTs) were carried out in order to determine the preserving activity of the diols. In the preservation stress test, this is simulated through artificial loadings with microorganisms. These can either be inoculated as mixed population or individually in mixtures independent of one another. The inoculated product samples are incubated under defined conditions and, after defined times, samples are taken in order to determine the germ loading. In the case of adequate preservation, the number of microorganisms should, depending on the type, either decrease or remain constant in order to satisfy the requirements specified, e.g. in Ph. Eur. 6.0. To investigate the preserving effect of the diols, application-typical amounts of the diols were incorporated into example formulations. […] [table] These example formulations were used to prepare various mixtures which each comprised 1% active substance or comprised water instead of the active substance as placebo mixtures. These mixtures were in each case inoculated with the test germs such that a germ loading of 10^5-10^6 CFU/g was present in the test mixture. The bacteria were either used individually for the inoculation or as a mixed culture. To determine the starting germ count, immediately after inoculation, an aliquot was taken, diluted in dilution medium (phosphate buffer, 0.07 molar pH 7.4 (+/−0.2), with 1% Tween 80+0.3% soya lecithin), and the surviving germ count was determined in the dilution stages 10^−1 to 10^−3. The inoculated product samples then incubated for a total of 28 d at 20-25° C. After 2 d, 7 d, 14 d and after 28 d, aliquots were taken and diluted in dilution medium (phosphate buffer, 0.07 molar pH 7.4 (+/−0.2), with 1% Tween 80+0.3% soya lecithin). The surviving germ counts were determined in the dilution stages 10^−1 to 10^−4. The reference point taken for determining the reduction in germ count was the respective initial value of the sample. The results were given as logarithmic reductions.

The subject of another assay is P. aeruginosa ATCC 15442. Here is the method: as §1
The test system of the next assay is A. niger ATCC 16404. The protocol:
as §1

The next assay concerns C. albicans ATCC 10231. Here is the method:
as §1

For a further assay, the system named is S. aureus ATCC 6538. Here is the method: as §1

For `CCCCC(O)CO` (centres unmarked) [1,2-Hexanediol, 1,2-hexanediol], the “Microbicidal activity given as logarithmic reduction in germ count” value in the assay on E. coli ATCC 10536 (48 h) is 0 log. Red; in the assay on E. coli ATCC 10536 (7 d), 1 log. Red; in the assay on E. coli ATCC 10536 (14 d) it was 2 log. Red; with E. coli ATCC 10536 (28 d) it was “≧3 log. Red”; with P. aeruginosa ATCC 15442 (48 h) it was 0 log. Red; in the assay on P. aeruginosa ATCC 15442 (7 d) it was 1 log. Red. For the same molecule, the “Microbicidal activity given as logarithmic reduction in germ count” value in the assay with P. aeruginosa ATCC 15442 (14 d) is 1 log. Red; with P. aeruginosa ATCC 15442 (28 d), “≧3 log. Red”; in the assay with A. niger ATCC 16404 (48 h) it was 0 log. Red; with A. niger ATCC 16404 (7 d), 0 log. Red; with A. niger ATCC 16404 (14 d), 0 log. Red; in the assay with A. niger ATCC 16404 (28 d), 0 log. Red. Further, the “Microbicidal activity given as logarithmic reduction in germ count” value in the assay with C. albicans ATCC 10231 (48 h) amounted to 0 log. Red; with C. albicans ATCC 10231 (7 d), 0 log. Red; in the assay with C. albicans ATCC 10231 (14 d) it was 0 log. Red; in the assay on C. albicans ATCC 10231 (28 d), 1 log. Red; with S. aureus ATCC 6538 (48 h), 1 log. Red; with S. aureus ATCC 6538 (7 d), 1 log. Red. The “Microbicidal activity given as logarithmic reduction in germ count” value in the assay with S. aureus ATCC 6538 (14 d) is on record as “≧3 log. Red”; in the assay with S. aureus ATCC 6538 (28 d) it was 5 log. Red.
